Laboratory results published in ChEMBL document CHEMBL5608182, “Synthesis and evaluation of neuroactive steroids with novel pharmacophore at C-21 let identify a compound with advantageous PK profile and higher EC50 and Emax as PAM on GABAA receptor” (Eur J Med Chem, 2024).

biological target: T1, GABA-A receptor; alpha-1/beta-2/gamma-2 (Homo sapiens, UniProt P14867+P18507+P47870); assay: Positive allosteric modulation of synaptic alpha1beta2gamma2 GABA-A receptor (unknown origin) transfected in LTK cells assessed as potentiation of GABA-induced peak current amplitude at -80 mV holding potential preincubated for 30 secs followed by GABA stimulation for 2 secs by Q-patch assay; type: cell-based; conditions: not given
T1 sequence (P14867 whole entry): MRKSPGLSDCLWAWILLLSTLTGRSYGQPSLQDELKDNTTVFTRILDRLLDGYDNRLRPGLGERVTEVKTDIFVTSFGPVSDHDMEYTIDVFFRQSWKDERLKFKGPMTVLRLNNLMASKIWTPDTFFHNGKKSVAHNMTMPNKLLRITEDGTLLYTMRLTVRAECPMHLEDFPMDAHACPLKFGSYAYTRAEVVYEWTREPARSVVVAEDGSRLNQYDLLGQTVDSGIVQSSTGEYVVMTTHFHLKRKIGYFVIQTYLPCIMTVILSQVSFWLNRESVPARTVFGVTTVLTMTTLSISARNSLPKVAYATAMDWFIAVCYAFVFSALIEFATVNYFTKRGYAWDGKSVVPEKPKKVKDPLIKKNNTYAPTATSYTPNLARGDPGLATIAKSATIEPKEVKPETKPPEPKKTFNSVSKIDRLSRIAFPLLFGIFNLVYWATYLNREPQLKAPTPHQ
T1 sequence (P47870 whole entry): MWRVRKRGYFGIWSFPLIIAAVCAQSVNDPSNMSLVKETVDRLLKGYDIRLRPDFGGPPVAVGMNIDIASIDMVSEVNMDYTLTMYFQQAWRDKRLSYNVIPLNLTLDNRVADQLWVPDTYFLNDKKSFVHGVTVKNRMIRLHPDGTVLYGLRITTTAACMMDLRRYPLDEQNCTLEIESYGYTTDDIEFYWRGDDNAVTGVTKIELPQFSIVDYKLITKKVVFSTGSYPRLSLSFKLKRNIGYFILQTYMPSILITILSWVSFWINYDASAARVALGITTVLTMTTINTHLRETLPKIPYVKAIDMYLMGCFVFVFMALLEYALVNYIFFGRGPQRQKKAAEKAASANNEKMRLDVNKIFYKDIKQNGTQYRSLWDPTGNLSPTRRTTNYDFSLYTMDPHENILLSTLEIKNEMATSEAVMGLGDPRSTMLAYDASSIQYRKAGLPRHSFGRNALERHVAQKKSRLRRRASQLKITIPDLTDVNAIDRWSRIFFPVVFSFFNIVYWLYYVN
T1 sequence (P18507 whole entry): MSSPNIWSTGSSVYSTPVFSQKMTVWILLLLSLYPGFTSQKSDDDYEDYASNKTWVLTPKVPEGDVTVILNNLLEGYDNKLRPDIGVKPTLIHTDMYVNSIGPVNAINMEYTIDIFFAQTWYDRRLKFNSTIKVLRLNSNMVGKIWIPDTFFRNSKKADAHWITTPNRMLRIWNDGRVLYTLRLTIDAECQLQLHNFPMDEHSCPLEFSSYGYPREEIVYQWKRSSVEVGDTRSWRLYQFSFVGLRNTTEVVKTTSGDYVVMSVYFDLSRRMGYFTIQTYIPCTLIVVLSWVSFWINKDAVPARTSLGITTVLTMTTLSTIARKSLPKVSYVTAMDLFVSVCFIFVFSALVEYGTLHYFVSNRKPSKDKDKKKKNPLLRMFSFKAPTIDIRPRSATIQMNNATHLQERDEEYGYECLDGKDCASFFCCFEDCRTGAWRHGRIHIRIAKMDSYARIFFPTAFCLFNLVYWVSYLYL

Row | Compound | EC50 [nM]
1 | C[C@@]1(O)CC[C@H]2[C@H](CC[C@@H]3[C@@H]2CC[C@]2(C)[C@@H](C(=O)Cn4cnn(-c5ccccc5)c4=O)CC[C@@H]32)C1 | 90
2 | C[C@@]1(O)CC[C@H]2[C@H](CC[C@@H]3[C@@H]2CC[C@]2(C)[C@@H](C(=O)Cn4cnn(-c5cccc(F)c5F)c4=O)CC[C@@H]32)C1 | 126
3 | C[C@@]1(O)CC[C@H]2[C@H](CC[C@@H]3[C@@H]2CC[C@]2(C)[C@@H](C(=O)Cn4cnn(-c5cc(F)ccc5F)c4=O)CC[C@@H]32)C1 | 340
4 | C[C@@]1(O)CC[C@H]2[C@H](CC[C@@H]3[C@@H]2CC[C@]2(C)[C@@H](C(=O)Cn4cnn(-c5nccs5)c4=O)CC[C@@H]32)C1 | 330
5 | CCn1ncn(CC(=O)[C@H]2CC[C@H]3[C@@H]4CC[C@@H]5C[C@](C)(O)CC[C@@H]5[C@H]4CC[C@]23C)c1=O | 190
6 | C[C@@]1(O)CC[C@H]2[C@H](CC[C@@H]3[C@@H]2CC[C@]2(C)[C@@H](C(=O)Cn4cnn(-c5cccc(N)c5)c4=O)CC[C@@H]32)C1 | 349
7 | C[C@@]1(O)CC[C@H]2[C@H](CC[C@@H]3[C@@H]2CC[C@]2(C)[C@@H](C(=O)Cn4cnn(C5CCCCC5)c4=O)CC[C@@H]32)C1 | 585
8 | C[C@@]1(O)CC[C@H]2[C@H](CC[C@@H]3[C@@H]2CC[C@]2(C)[C@@H](C(=O)Cn4cnn(-c5ccc6c(c5)OCO6)c4=O)CC[C@@H]32)C1 | 139
9 | C[C@@]1(O)CC[C@H]2[C@H](CC[C@@H]3[C@@H]2CC[C@]2(C)[C@@H](C(=O)Cn4cnn(-c5cccc(OC(F)(F)F)c5)c4=O)CC[C@@H]32)C1 | 182
10 | C[C@@]1(O)CC[C@H]2[C@H](CC[C@@H]3[C@@H]2CC[C@]2(C)[C@@H](C(=O)Cn4cnn(-c5cc(F)ccn5)c4=O)CC[C@@H]32)C1 | 340
11 | C[C@@]1(O)CC[C@H]2[C@H](CC[C@@H]3[C@@H]2CC[C@]2(C)[C@@H](C(=O)Cn4cnn(-c5cncc(F)c5)c4=O)CC[C@@H]32)C1 | 145

biological target: Gamma-aminobutyric acid receptor subunit alpha-4/beta3/delta (Homo sapiens) (UniProt P28472+P48169+O14764); assay: Positive allosteric modulation of extrasynaptic alpha4beta3delta GABA-A receptor (unknown origin) transfected in CHO cells assessed as potentiation of GABA-induced peak current amplitude by measuring maximal efficacy at 0.01 to 10 uM at -80 mV holding potential preincubated for 30 secs followed by GABA stimulation for 2 secs by manual patch assay relative to control; type: cell-based; conditions: filed as positive allosteric modulator, dose 0.01-10 µM, time 32.0 sec

Row | Compound | Emax [%]
12 | C[C@@]1(O)CC[C@H]2[C@H](CC[C@@H]3[C@@H]2CC[C@]2(C)[C@@H](C(=O)Cn4cnn(-c5ccccc5)c4=O)CC[C@@H]32)C1 | 430
13 | C[C@@]1(O)CC[C@H]2[C@H](CC[C@@H]3[C@@H]2CC[C@]2(C)[C@@H](C(=O)Cn4cnn(-c5cccc(F)c5F)c4=O)CC[C@@H]32)C1 | 526
14 | C[C@@]1(O)CC[C@H]2[C@H](CC[C@@H]3[C@@H]2CC[C@]2(C)[C@@H](C(=O)Cn4cnn(-c5cc(F)ccc5F)c4=O)CC[C@@H]32)C1 | 743
15 | C[C@@]1(O)CC[C@H]2[C@H](CC[C@@H]3[C@@H]2CC[C@]2(C)[C@@H](C(=O)Cn4cnn(-c5nccs5)c4=O)CC[C@@H]32)C1 | 633
16 | CCn1ncn(CC(=O)[C@H]2CC[C@H]3[C@@H]4CC[C@@H]5C[C@](C)(O)CC[C@@H]5[C@H]4CC[C@]23C)c1=O | 526
17 | C[C@@]1(O)CC[C@H]2[C@H](CC[C@@H]3[C@@H]2CC[C@]2(C)[C@@H](C(=O)Cn4cnn(-c5cccc(N)c5)c4=O)CC[C@@H]32)C1 | 1070
18 | C[C@@]1(O)CC[C@H]2[C@H](CC[C@@H]3[C@@H]2CC[C@]2(C)[C@@H](C(=O)Cn4cnn(C5CCCCC5)c4=O)CC[C@@H]32)C1 | 685
19 | C[C@@]1(O)CC[C@H]2[C@H](CC[C@@H]3[C@@H]2CC[C@]2(C)[C@@H](C(=O)Cn4cnn(-c5ccc6c(c5)OCO6)c4=O)CC[C@@H]32)C1 | 1200
20 | C[C@@]1(O)CC[C@H]2[C@H](CC[C@@H]3[C@@H]2CC[C@]2(C)[C@@H](C(=O)Cn4cnn(-c5cccc(OC(F)(F)F)c5)c4=O)CC[C@@H]32)C1 | 1580
21 | C[C@@]1(O)CC[C@H]2[C@H](CC[C@@H]3[C@@H]2CC[C@]2(C)[C@@H](C(=O)Cn4cnn(-c5cc(F)ccn5)c4=O)CC[C@@H]32)C1 | 720
22 | C[C@@]1(O)CC[C@H]2[C@H](CC[C@@H]3[C@@H]2CC[C@]2(C)[C@@H](C(=O)Cn4cnn(-c5cncc(F)c5)c4=O)CC[C@@H]32)C1 | 601

biological target: Gamma-aminobutyric acid receptor subunit alpha-4/beta3/delta (Homo sapiens, UniProt O14764+P28472+P48169); assay: Positive allosteric modulation of extrasynaptic alpha4beta3delta GABA-A receptor (unknown origin) transfected in CHO cells assessed as potentiation of GABA-induced peak current amplitude at -80 mV holding potential preincubated for 30 secs followed by GABA stimulation for 2 secs by manual patch assay; type: cell-based; conditions: not given
Sequence (P28472 whole entry): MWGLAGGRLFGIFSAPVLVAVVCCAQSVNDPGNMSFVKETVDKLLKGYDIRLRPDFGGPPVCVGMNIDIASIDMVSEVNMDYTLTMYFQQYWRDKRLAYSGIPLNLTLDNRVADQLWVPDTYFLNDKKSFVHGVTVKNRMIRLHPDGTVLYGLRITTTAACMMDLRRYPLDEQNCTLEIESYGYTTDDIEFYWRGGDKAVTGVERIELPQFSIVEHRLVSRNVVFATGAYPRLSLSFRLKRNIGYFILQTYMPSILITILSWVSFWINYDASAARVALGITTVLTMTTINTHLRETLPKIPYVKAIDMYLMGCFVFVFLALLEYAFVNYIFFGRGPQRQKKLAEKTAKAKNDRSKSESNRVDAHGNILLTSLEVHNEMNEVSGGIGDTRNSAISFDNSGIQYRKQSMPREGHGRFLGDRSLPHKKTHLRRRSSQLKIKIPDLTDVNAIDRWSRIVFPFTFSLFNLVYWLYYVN
Sequence (P48169 whole entry): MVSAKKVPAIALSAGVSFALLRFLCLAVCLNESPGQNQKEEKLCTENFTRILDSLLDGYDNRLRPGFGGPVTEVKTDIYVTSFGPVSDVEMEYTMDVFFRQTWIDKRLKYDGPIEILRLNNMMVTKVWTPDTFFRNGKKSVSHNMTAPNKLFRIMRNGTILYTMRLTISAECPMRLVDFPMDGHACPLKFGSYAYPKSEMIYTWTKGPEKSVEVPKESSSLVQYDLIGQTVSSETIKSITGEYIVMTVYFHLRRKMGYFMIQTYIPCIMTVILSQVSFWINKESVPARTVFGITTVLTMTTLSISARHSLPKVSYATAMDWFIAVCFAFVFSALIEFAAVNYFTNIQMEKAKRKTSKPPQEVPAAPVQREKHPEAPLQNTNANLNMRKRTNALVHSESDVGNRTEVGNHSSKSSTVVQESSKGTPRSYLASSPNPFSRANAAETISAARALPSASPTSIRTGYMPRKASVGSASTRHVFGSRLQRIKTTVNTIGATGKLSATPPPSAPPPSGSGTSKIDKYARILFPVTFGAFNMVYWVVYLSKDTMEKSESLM
Sequence (O14764 whole entry): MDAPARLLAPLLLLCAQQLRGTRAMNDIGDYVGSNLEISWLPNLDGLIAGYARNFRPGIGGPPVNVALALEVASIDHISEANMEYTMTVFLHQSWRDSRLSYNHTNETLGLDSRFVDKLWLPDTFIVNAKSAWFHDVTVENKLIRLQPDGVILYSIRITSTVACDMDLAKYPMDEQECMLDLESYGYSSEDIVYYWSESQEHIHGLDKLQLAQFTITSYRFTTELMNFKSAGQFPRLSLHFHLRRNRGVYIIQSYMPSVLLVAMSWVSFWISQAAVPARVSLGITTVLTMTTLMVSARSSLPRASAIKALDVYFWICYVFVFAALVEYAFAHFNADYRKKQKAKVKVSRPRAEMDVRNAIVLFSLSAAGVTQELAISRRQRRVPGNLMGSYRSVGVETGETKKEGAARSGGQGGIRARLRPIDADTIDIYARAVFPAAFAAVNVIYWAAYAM

Row | Compound | EC50 [nM]
23 | C[C@@]1(O)CC[C@H]2[C@H](CC[C@@H]3[C@@H]2CC[C@]2(C)[C@@H](C(=O)Cn4cnn(-c5ccccc5)c4=O)CC[C@@H]32)C1 | 29
24 | C[C@@]1(O)CC[C@H]2[C@H](CC[C@@H]3[C@@H]2CC[C@]2(C)[C@@H](C(=O)Cn4cnn(-c5cccc(F)c5F)c4=O)CC[C@@H]32)C1 | 42
25 | C[C@@]1(O)CC[C@H]2[C@H](CC[C@@H]3[C@@H]2CC[C@]2(C)[C@@H](C(=O)Cn4cnn(-c5cc(F)ccc5F)c4=O)CC[C@@H]32)C1 | 79
26 | C[C@@]1(O)CC[C@H]2[C@H](CC[C@@H]3[C@@H]2CC[C@]2(C)[C@@H](C(=O)Cn4cnn(-c5nccs5)c4=O)CC[C@@H]32)C1 | 126
27 | CCn1ncn(CC(=O)[C@H]2CC[C@H]3[C@@H]4CC[C@@H]5C[C@](C)(O)CC[C@@H]5[C@H]4CC[C@]23C)c1=O | 270
28 | C[C@@]1(O)CC[C@H]2[C@H](CC[C@@H]3[C@@H]2CC[C@]2(C)[C@@H](C(=O)Cn4cnn(-c5cccc(N)c5)c4=O)CC[C@@H]32)C1 | 213
29 | C[C@@]1(O)CC[C@H]2[C@H](CC[C@@H]3[C@@H]2CC[C@]2(C)[C@@H](C(=O)Cn4cnn(C5CCCCC5)c4=O)CC[C@@H]32)C1 | 237
30 | C[C@@]1(O)CC[C@H]2[C@H](CC[C@@H]3[C@@H]2CC[C@]2(C)[C@@H](C(=O)Cn4cnn(-c5ccc6c(c5)OCO6)c4=O)CC[C@@H]32)C1 | 266
31 | C[C@@]1(O)CC[C@H]2[C@H](CC[C@@H]3[C@@H]2CC[C@]2(C)[C@@H](C(=O)Cn4cnn(-c5cccc(OC(F)(F)F)c5)c4=O)CC[C@@H]32)C1 | 41
32 | C[C@@]1(O)CC[C@H]2[C@H](CC[C@@H]3[C@@H]2CC[C@]2(C)[C@@H](C(=O)Cn4cnn(-c5cc(F)ccn5)c4=O)CC[C@@H]32)C1 | 68
33 | C[C@@]1(O)CC[C@H]2[C@H](CC[C@@H]3[C@@H]2CC[C@]2(C)[C@@H](C(=O)Cn4cnn(-c5cncc(F)c5)c4=O)CC[C@@H]32)C1 | 150

biological target: GABA-A receptor; alpha-1/beta-2/gamma-2 (Homo sapiens) (UniProt P14867+P47870+P18507); assay: Positive allosteric modulation of synaptic alpha1beta2gamma2 GABA-A receptor (unknown origin) transfected in LTK cells assessed as potentiation of GABA-induced peak current amplitude by measuring maximal efficacy at 0.01 to 10 uM at -80 mV holding potential preincubated for 30 secs followed by GABA stimulation for 2 secs by Q-patch assay relative to control; type: cell-based; conditions: filed as positive allosteric modulator, dose 0.01-10 µM, time 32.0 sec

Row | Compound | Emax [%]
34 | C[C@@]1(O)CC[C@H]2[C@H](CC[C@@H]3[C@@H]2CC[C@]2(C)[C@@H](C(=O)Cn4cnn(-c5ccccc5)c4=O)CC[C@@H]32)C1 | 430
35 | C[C@@]1(O)CC[C@H]2[C@H](CC[C@@H]3[C@@H]2CC[C@]2(C)[C@@H](C(=O)Cn4cnn(-c5cccc(F)c5F)c4=O)CC[C@@H]32)C1 | 445
36 | C[C@@]1(O)CC[C@H]2[C@H](CC[C@@H]3[C@@H]2CC[C@]2(C)[C@@H](C(=O)Cn4cnn(-c5cc(F)ccc5F)c4=O)CC[C@@H]32)C1 | 347
37 | C[C@@]1(O)CC[C@H]2[C@H](CC[C@@H]3[C@@H]2CC[C@]2(C)[C@@H](C(=O)Cn4cnn(-c5nccs5)c4=O)CC[C@@H]32)C1 | 763
38 | CCn1ncn(CC(=O)[C@H]2CC[C@H]3[C@@H]4CC[C@@H]5C[C@](C)(O)CC[C@@H]5[C@H]4CC[C@]23C)c1=O | 632
39 | C[C@@]1(O)CC[C@H]2[C@H](CC[C@@H]3[C@@H]2CC[C@]2(C)[C@@H](C(=O)Cn4cnn(-c5cccc(N)c5)c4=O)CC[C@@H]32)C1 | 786
40 | C[C@@]1(O)CC[C@H]2[C@H](CC[C@@H]3[C@@H]2CC[C@]2(C)[C@@H](C(=O)Cn4cnn(C5CCCCC5)c4=O)CC[C@@H]32)C1 | 873
41 | C[C@@]1(O)CC[C@H]2[C@H](CC[C@@H]3[C@@H]2CC[C@]2(C)[C@@H](C(=O)Cn4cnn(-c5ccc6c(c5)OCO6)c4=O)CC[C@@H]32)C1 | 387
42 | C[C@@]1(O)CC[C@H]2[C@H](CC[C@@H]3[C@@H]2CC[C@]2(C)[C@@H](C(=O)Cn4cnn(-c5cccc(OC(F)(F)F)c5)c4=O)CC[C@@H]32)C1 | 629
43 | C[C@@]1(O)CC[C@H]2[C@H](CC[C@@H]3[C@@H]2CC[C@]2(C)[C@@H](C(=O)Cn4cnn(-c5cc(F)ccn5)c4=O)CC[C@@H]32)C1 | 446
44 | C[C@@]1(O)CC[C@H]2[C@H](CC[C@@H]3[C@@H]2CC[C@]2(C)[C@@H](C(=O)Cn4cnn(-c5cncc(F)c5)c4=O)CC[C@@H]32)C1 | 618
